According to patent US5817652A, “Hypolipidaemic condensed 1,4-thiazepines” (Glaxo Wellcome Inc., priority 1993, dated 1998):
Structures can show the parent of a compound that is named as a salt.

Test system: rat distal ileal brush border membrane vesicles
Assay: In vitro inhibition of bile acid uptake (sodium-dependent 3H taurocholate uptake)
Format: biochemical
Details: active (sodium-dependent) 3H taurocholate uptake, 30 seconds at 24° C., pH 7.4
Experimental: In vitro inhibition of bile acid uptake
Freshly prepared rat distal ileal brush border membrane vesicles (about […] vesicle protein) were incubated for 30 seconds at 24° C. in an incubation mixture comprising […] ^3 H taurocholate, 100 mM NaCl (or KCl) and 80 mM mannitol in 20 mM Herpes Tris pH 7.4. Each test compound was dissolved in ethanol (or water) and then diluted with incubation mixture to an ethanol concentration of not more than 1% v/v. The incubation was terminated by rapid dilution and filtration and the filter washed with an ice-cold isotonic sodium-free buffer.
The uptake of ^3 H taurocholate was measured by the radioactivity remaining on the filter and converted to pmoles/mg vesicle protein. The active, ie sodium-dependent, uptake was obtained by subtracting the passive uptake measured in 100 mM KCl from the total uptake measured in 100 mM NaCl. The active uptake for each test compound was compared with a control active uptake and the results expressed as % inhibition of bile acid uptake.

Compound	% inhibition of bile acid uptake (0.3 μM compound) [%]	% inhibition of bile acid uptake (1 μM compound) [%]	% inhibition of bile acid uptake (3 μM compound) [%]	% inhibition of bile acid uptake (10 μM compound) [%]
CCC(=O)CC1(CC)CS(=O)(=O)c2ccccc2C(c2ccccc2)N1 (mixture of isomers) [Example 4, (±)-trans-1-(3-ethyl-2,3,4,5-tetrahydro-5-phenyl-1,4-benzothiazepin-3-yl)-2-butanone S,S-dioxide]	28	54	77	90
CCC(=O)CC1(CC)CS(=O)(=O)c2cc(OC)ccc2C(c2ccccc2)N1 (mixture of isomers) [Example 5, (±)-trans-1-(3-ethyl-2,3,4,5-tetrahydro-8-methoxy-5-phenyl-1,4-benzothiazepin-3-yl)-2-butanone S,S-dioxide hydrochloride 1,1 hydrate]	60	83	94	98
CCC1(/C=C/C(C)=O)CS(=O)(=O)c2ccccc2C(c2ccccc2)N1 (mixture of isomers) [Example 10, (±)-trans-(E)-4-(3-ethyl-2,3,4,5-tetrahydro-5-phenyl-1,4-benzothiazepin-3-yl)-3-buten-2-one 1,1-dioxide]				69
CCC(=O)CC1(CC)CS(=O)(=O)c2ccc(OC)cc2C(c2ccccc2)N1 (mixture of isomers) [Example 51, (±)-Trans-1-(3-Ethyl-2,3,4,5-tetrahydro-7-methoxy-5-phenyl-1,4-benzothiazepin-3-yl)-2-butanone S,S-dioxide hydrochloride]	66	91	100	100
CCOCCC1(CC)CS(=O)(=O)c2ccccc2C(c2ccccc2)N1 (racemic) [Example 7, (±)-trans-3-(ethoxyethyl)-3-ethyl-2,3,4,5-tetrahydro-5-phenyl-1,4-benzothiazepine 1,1-dioxide hydrochloride hemihydrate]				53
COc1ccc2c(c1)S(=O)(=O)CC1(CCCCC1)NC2c1ccccc1 (racemic) [Example 11, (±)-2,3,4,5-tetrahydro-8-methoxy-5-phenylspiro(1,4-benzothiazepine-3,1-cyclohexane) 1,1-dioxide]	15	33	36	64
O=S1(=O)CC2(CCCCC2)NC(c2ccccc2)c2ccccc21 (racemic) [Example 20, (±)-2,3,4,5-Tetrahydro-5-phenylspiro(1,4-benzothiazepine-3,1'-cyclohexane) 1,1-dioxide]				27
